Results reported in US8119630B2 (Arrow Therapeutics Limited, priority 2002, dated 2012).

What was measured:
[1] = test system: Hep-2 cells; assay: Toxicity studies (XTT), Hep-2 cells; format: cell-based; parameters: TC50 (6d): unit not given beside the values; conditions: for TC50 (2d): Table 2, Examples 75 to 82 and 125 to 184, 2d; for TC50 (6d): Table 2, Examples 75 to 82 and 125 to 184, 6d, in µM
Procedure: (§1) The inner 60 wells of 96 well tissue culture plates were seeded with Hep-2 cells at 4×10^4 cells/well for compound activity and toxicity studies in 100 μl of medium and incubated at 37° C. overnight or until nearing confluency.
Cells were infected with 25 μl RSV previously titrated to give 80% cell kill. To each well 25 μM of test compound were added. The final DMSO concentration was 0.5%. […] Some 0.25 μl/ml PMS were added to stock […] solution, final conc. 25 μM PMS. Then 25 μl warmed XTT/PMS solution were added to each well and incubated for 1 hour at 37° C.

[2] = test system: RSV; assay: XTT assay, RSV-infected Hep-2 cells; format: cell-based, Respiratory Syncytial Virus (RSV); conditions: Table 2, Examples 75 to 82 and 125 to 184, Hep-2 cells infected with RSV, 6 days at 37° C.
Procedure: Examples 75 to 82 and 125 to 184 were tested according to the protocol described below.
as §1
Cells were infected with 25 μl RSV previously titrated to give 80% cell kill. To each well 25 μM of test compound were added. The final DMSO concentration was 0.5%. Some 200 μl of sterile distilled water were added to the outer wells of the plate and incubated at 37° C. for 6 days. Some 0.25 μl/ml PMS were added to stock […] solution, final conc. 25 μM PMS. Then 25 μl warmed XTT/PMS solution were added to each well and incubated for 1 hour at 37° C.
Maximum OD450nm reading (uninfected, untreated control cells) corresponded to 100% inhibition. Minimum OD450nm readings (infected control cells) corresponded to 0% inhibition. Log 10 concentration was plotted against OD450nm and IC50 values were calculated from either reading 50% value from graph or using regression analysis.

[3] = human respiratory syncytial virus, 144 h

COc1ccc(S(N)(=O)=O)cc1C(=O)NC1N=C(c2ccccc2)c2ccccc2NC1=O (stereo not shown) [Example 143, 2-Methoxy-N-(2-oxo-5-phenyl-2,3-dihydro-1H-benzo[e][1,4]diazepin-3-yl)-5-sylfamoyl-benzamide]
TC50 (2d) [1]: > 50 µM
IC50 [2]: 3.8 µM

CC(C)(C)NC(=O)NC1N=C(c2ccccc2)c2ccccc2NC1=O (stereo not shown) [Example 148, 1-tert-Butyl-3-(2-oxo-5-phenyl-2,3-dihydro-1H-benzo[e][1,4]diazepin-3-yl)-urea]
TC50 (2d) [1]: > 100 µM
TC50 (6d) [1]: >100
IC50 [2, 3]: 5 µM

Cyclohexanecarboxylic acid [5-(3-methoxy-phenyl)-2-oxo-5-phenyl-2,3-dihydro-1H-benzo[e][1,4]diazepin-3-yl]-amide [Example 165]
TC50 (2d) [1]: > 100 µM
TC50 (6d) [1]: >100
IC50 [2]: 2 µM

O=C(NC1N=C(c2ccccc2)c2ccccc2NC1=O)c1cc(F)cc2c1OCOC2 (stereo not shown) [Example 77a, 6-Fluoro-4H-benzo[1,3]dioxine-8-carboxylic acid (2-oxo-5-phenyl-2,3-dihydro-1H-benzo[e][1,4]diazepin-3-yl)-benzamide]
TC50 (6d) [1]: >50
IC50 [2]: 4.6 µM

O=C(NC1N=C(c2ccccc2)c2ccccc2NC1=O)C(=O)c1cccs1 (stereo not shown) [Example 184, 2-Oxo-N-(2-oxo-5-phenyl-2,3-dihydro-1H-benzo[e][1,4]diazepin-3-yl)-2-thiophene-2-yl-acetamide]
TC50 (2d) [1]: > 50 µM
IC50 [2, 3]: 9.5 µM

Cc1cc(C(=O)NC2N=C(c3ccccc3)c3ccccc3NC2=O)oc1C (stereo not shown) [Example 152, 4,5-Dimethyl-furan-2-carboxylic acid (2-oxo-5-phenyl-2,3-dihydro-1H-benzo[e][1,4]diazepin-3-yl)amide]
TC50 (2d) [1]: > 100 µM
TC50 (6d) [1]: 100
IC50 [2, 3]: 0.3 µM

Thiophene-2-carboxylic acid [5-(3-chloro-phenyl)-2-oxo-5-phenyl-2,3-dihydro-1H-benzo[e][1,4]diazepin-3-yl]-amide [Example 157]
TC50 (2d) [1]: > 100 µM
TC50 (6d) [1]: 100
IC50 [2]: 5 µM

COc1cc2ccccc2cc1C(=O)N[C@H]1N=C(c2ccccc2)c2ccccc2NC1=O [Example 82b, (S)-3-Methoxy-naphthalene-2-carboxylic acid (2-oxo-5-phenyl-2,3-dihydro-1H-benzo[e][1,4]diazepin-3-yl)-amide]
TC50 (6d) [1]: >50
IC50 [2, 3]: 1.5 µM

CCOC(=O)NC1N=C(c2ccccc2)c2ccccc2NC1=O (stereo not shown) [Example 182, (2-Oxo-5-phenyl-2,3-dihydro-1H-benzo[e][1,4]diazepin-3-yl)-carbamic acid ethyl ester]
TC50 (6d) [1]: >50
IC50 [2, 3]: 10 µM

Cyclohexanecarboxylic acid [5-(3-chloro-phenyl)-2-oxo-5-phenyl-2,3-dihydro-1H-benzo[e][1,4]diazepin-3-yl]-amide [Example 158]
TC50 (2d) [1]: 100 µM
TC50 (6d) [1]: >100
IC50 [2]: 2 µM

O=C(NC1N=C(c2ccccc2)c2ccccc2NC1=O)c1cc(F)c(F)cc1F (stereo not shown) [Example 79a, 2,4,5-Trifluoro-N-(2-oxo-5-phenyl-2,3-dihydro-1H-benzo[e][1,4]diazopin-3-yl)-benzamide]
TC50 (6d) [1]: 65
IC50 [2]: 8 µM

N-[5-(3-Chloro-phenyl)-2-oxo-5-phenyl-2,3-dihydro-1H-benzo[e][1,4]diazepin-3-yl)acetamide [Example 154]
TC50 (2d) [1]: > 100 µM
TC50 (6d) [1]: >100
IC50 [2]: 3 µM

O=C(NC1N=C(c2ccccc2)c2ccccc2NC1=O)c1cnccn1 (stereo not shown) [Example 162]
TC50 (2d) [1]: > 100 µM
TC50 (6d) [1]: >100
IC50 [2]: 2 µM

COC(=O)c1ccc(C(=O)NC2N=C(c3ccccc3)c3ccccc3NC2=O)cc1 (stereo not shown) [Example 134, N-(2-Oxo-5-phenyl-2,3-dihydro-1H-benzo[e][1,4]diazepin-3-yl)terephthalamic acid methyl ester]
TC50 (6d) [1]: 77.1
IC50 [2, 3]: 6.5 µM

O=C(N[C@H]1N=C(c2ccccc2)c2ccccc2NC1=O)c1cc2ccccc2o1 [Example 180, (S)-Benzofuran-2-carboxylic acid (2-oxo-5-phenyl-2,3-dihydro-1H-benzo[e][1,4]diazepin-3-yl)-amide]
TC50 (6d) [1]: 37.1
IC50 [2, 3]: 2.6 µM

CC(C)COC(=O)NC1N=C(c2ccccc2)c2ccccc2NC1=O (stereo not shown) [Example 183, (2-Oxo-5-phenyl-2,3-dihydro-1H-benzo[e][1,4]diazepin-3-yl)-carbamic acid isobutyl ester]
TC50 (6d) [1]: >50
IC50 [2, 3]: 9.88 µM

COc1cc(N)c(Cl)cc1C(=O)NC1N=C(c2ccccc2)c2ccccc2NC1=O (stereo not shown) [Example 140, 4-Amino-5-chloro-2-methoxy-N-(2-oxo-5-phenyl-2,3-dihydro-1H-benzo[e][1,4]diazepin-3-yl)-benzamide]
TC50 (6d) [1]: 68
IC50 [2, 3]: 2.5 µM

CCOc1ccc(C(C)=O)cc1C(=O)N[C@H]1N=C(c2ccccc2)c2ccccc2NC1=O [Example 76b, (S)-5-Acetyl-2-ethoxy-N-(2-oxo-5-phenyl-2,3-dihydro-1H-benzo[e][1,4]diazepin-3-yl)-benzamide]
TC50 (6d) [1]: >50
IC50 [2, 3]: 1.2 µM

O=C(N[C@H]1N=C(c2ccccc2)c2ccccc2NC1=O)c1cc(Br)c(Br)o1 [Example 179, (S)-4,5-Dibromo-furan-2-carboxylic acid (2-oxo-5-phenyl-2,3-dihydro-1H-benzo[e][1,4]diazepin-3-yl)-amide]
TC50 (6d) [1]: >50
IC50 [2, 3]: 3.9 µM

COc1cc(C(F)(F)F)ccc1C(=O)N[C@H]1N=C(c2ccccc2)c2ccccc2NC1=O [Example 78, (S)-2-Methoxy-N-(2-oxo-5-phenyl-2,3-dihydro-1H-benzo[e][1,4]diazepin-3-yl)-4-trifluoromethyl-benzamide]
TC50 (6d) [1]: 32.5
IC50 [2, 3]: 2.7 µM

COc1ccc(C(C)(C)C)cc1C(=O)NC1N=C(c2ccccc2)c2ccccc2NC1=O (stereo not shown) [Example 125, 5-tert-Butyl-2-methoxy-N-(2-oxo-5-phenyl-2,3-dihydro-1H-benzo[e][1,4]diazepin-3-yl)-benzamide]
TC50 (6d) [1]: >50
IC50 [2, 3]: 6.1 µM

O=C1Nc2ccccc2C(c2ccccc2)=NC1NC(=O)n1c(=O)[nH]c2ccccc21 (stereo not shown) [Example 177, 2-Oxo-2,3-dihydro-benzoimidazole-1-carboxylic acid (2-oxo-5-phenyl-2,3-dihydro-1H-benzo[e][1,4]diazepin-3-yl)-amide]
TC50 (6d) [1]: >50
IC50 [2, 3]: 4.3 µM

O=C(Nc1cccc(Cl)c1)NC1N=C(c2ccccc2)c2ccccc2NC1=O (stereo not shown) [Example 131]
TC50 (6d) [1]: >50
IC50 [2]: 9.6 µM

O=C(N[C@H]1N=C(c2ccccc2)c2ccccc2NC1=O)c1cc(F)cc2c1OCOC2 [Example 77b, (S)-6-Fluoro-4H-benzo[1,3]dioxine-8-carboxylic acid (2-oxo-5-phenyl-2,3-dihydro-1H-benzo[e][1,4]diazepin-3-yl)-amide]
TC50 (6d) [1]: 33.2
IC50 [2, 3]: 0.5 µM

Furan-2-carboxylic acid [5-(3-chloro-phenyl)-2-oxo-5-phenyl-2,3-dihydro-1H-benzo[e][1,4]diazepin-3-yl]-amide [Example 156]
TC50 (2d) [1]: 100 µM
TC50 (6d) [1]: 100
IC50 [2]: 1.5 µM

O=C(NC1N=C(c2ccccc2)c2ccccc2NC1=O)C(O)Cc1ccccc1 (stereo not shown) [Example 144, 2-Hydroxy-N-(2-oxo-5-phenyl-2,3-dihydro-1H-benzo[e][1,4]diazepin-3-yl)-3-phenyl-propionamide]
TC50 (2d) [1]: > 50 µM
IC50 [2, 3]: 5.5 µM

5-Acetyl-2-ethoxy-N-(2-oxo-5-phenyl-2,3-dihydro-1H-benzo[e][1,4]diazepin-3-yl)-benzamide [Example 76a]
TC50 (6d) [1]: 64
IC50 [2]: 3.5 µM

COc1cc(S(C)(=O)=O)ccc1C(=O)N[C@H]1N=C(c2ccccc2)c2ccccc2NC1=O [Example 75b, (S)-4-Methanesulfonyl-2-methoxy-N-(2-oxo-5-phenyl-2,3-dihydro-1H-benzo[e][1,4]diazepin-3-yl)-benzamide]
TC50 (6d) [1]: >50
IC50 [2, 3]: 0.6 µM

O=C(NC1N=C(c2ccccc2)c2ccccc2NC1=O)c1ccccc1O (stereo not shown) [Example 80a, 2-Hydroxy-N-(2-oxo-5-phenyl-2,3-dihydro-1H-benzo[e][1,4]diazepin-3-yl)-benzamide]
TC50 (6d) [1]: 33
IC50 [2, 3]: 8.7 µM

O=C(Nc1ccsc1)NC1N=C(c2ccccc2)c2ccccc2NC1=O (stereo not shown) [Example 171, 1-(2-Oxo-5-phenyl-2,3-dihydro-1H-benzo[e][1,4]diazepin-3-yl)-3-thiophene-3-yl-urea]
TC50 (6d) [1]: >50
IC50 [2, 3]: 4.8 µM

O=C(Nc1c(F)cccc1F)NC1N=C(c2ccccc2)c2ccccc2NC1=O (stereo not shown) [Example 127, 1-(2,6-Difluoro-phenyl)-3-(2-oxo-5-phenyl-2,3-dihydro-1H-benzo[e][1,4]diazepin-3-yl)-urea]
TC50 (6d) [1]: >50
IC50 [2, 3]: 9.4 µM
